Assay results as given in patent publication US20190282616A1, “MACROPHAGES REDIRECT PHAGOCYTOSIS BY NON-PROFESSIONAL PHAGOCYTES AND INFLUENCE INFLAMMATION” (University of Virginia Patent Foundation, priority 2016, published 2019).

Experiments:
LR73 cells [1] = settings: for effect on IGF-1 induced increase in liposome uptake / basal uptake of liposomes: LR73 cells; for effect on IGF-1 induced increase in liposome uptake: inhibitor plus IGF-1; for basal uptake of liposomes: inhibitor without IGF-1; for uptake of PtdSer containing liposomes by LR73 cells: liposomes of 150-200 nm, IGF-1 50 ng/mL, EGF or VEGF 100 ng/mL each
Method: (§1) LR73, SVEC-40, BEAS-2B, and 16HBE14o-cells were seeded in a 24 well plate. Thymocytes were isolated from 4-6 week old mice and induced to undergo apoptosis with dexamethasone. Thymocytes or prepared microvesicles were then stained with either CypHer5E (GE Healthcare, PA15401) or TAMRA (Invitrogen, C-1171). LR73 and SVEC-40 cells were incubated with apoptotic thymocytes at a 1:10 phagocyte to target ratio, BEAS-2B at a 1:5 phagocyte to target ratio, and 16HBE14o—at a 1:20 phagocyte to target ratio for 2 hours. Mouse IGF-I (Sigma-Aldrich), human IGF-I (Sigma-Aldrich), human IGF-II (Sigma-Aldrich) were added to the phagocytes at the same time as addition of apoptotic targets. For IGFBP3 studies, IGFBP3 (Sigma-Aldrich) was added to media or supernatant from J774 cells for one hour to allow IGFBP3 to bind to any available IGF-I, then the mix is added to phagocytes along with apoptotic targets. For all pharmacological studies, phagocytes were pre-incubated with the compounds listed below for one hour prior to addition of apoptotic targets: cytochalasin D (Sigma-Aldrich, C8273, 1 μM), Latrunculin A (Tocris, 3973, 150 nM), CK-666 (Tocris, 3950, 25 μM-100 μM), OSI-906 (Selleckchem, S1091, 5 nM-40 nM), NVP-AEW541 (Selleckchem, S1034, 25 nM-100 nM), Rapamycin (Sigma-Aldrich, R0395, […]), MK-2206 2HCl (Selleckchem, S1078, 10 nM-1 U0126-EtOH (Selleckchem, S1102, […]), Wortmannin (Sigma-Aldrich, W1628, 50 nM-200 nM), Y27632 (Calbiochem, 688000, 3.75 μM-15 μM), or GSK269962 (Tocris, 4009, 80 nM-2 μM). […] Targets were then washed off three times with PBS, and the cells were dissociated from the plate with trypsin and the engulfment assessed by flow cytometry.
Liposomes were prepared by dissolving the lipids (phosphatidylserine, dioleoyl phosphatidylcholine, cholesterol and the lipid DiD dye) in chloroform, evaporating chloroform under flow of argon gas in a glass vial, then subjecting the lipid layer to overnight lyophilization to remove traces of organic solvent. Then normal saline was added for hydration, and intense vortexing was preformed to prepare multilamellar vesicles (MIN). Liposomes were repeatedly filtered through a 0.2 um Nuclepore polycarbonate filter to prepare smaller particles. Particle size was verified by dynamic light scattering using Nicomp 370.

LR73 cells [2] = assay: In vitro engulfment assay: apoptotic thymocyte uptake by LR73 cells; format: cell-based, hamster; settings: for basal phagocytosis of apoptotic cells with inhibitor alone: without IGF-1; for reversal of IGF-1 mediated engulfment suppression in LR73 cells: agent added in the presence of IGF-1; for apoptotic cell uptake (engulfment) by LR73 cells: soluble mediator alone, IGF-I at concentrations reported in serum (100-600 ng/mL), other factors over a range of concentrations; for apoptotic cell uptake by LR73 cells: human insulin or human IGF-II, at higher concentrations than IGF-1
Method: as §1

[3] = test system: IGF-1R, Akt and Erk1/2 phosphorylation in LR73 cells; assay: Immunoblotting of signaling in LR73 cells; format: cell-based, hamster; settings: for phosphorylation of IGF-1R and Erk: LR73 cells stimulated with IGF-1 and treated with inhibitor; for early downstream signaling events (Erk1/2 phosphorylation): serum-starved LR73 cells, 100 ng/mL growth factor
Method: LR73, J774, or BEAS-2B cells were seeded in a 60 mm dish at a concentration of 5×10^5. […] Cells were lysed in RIPA buffer and used in Western blots. The blots were probed for phospho-Erk1/2 (Cell Signaling Technology, #4370), phospho-Akt (Cell Signaling Technology, #4060), phospho-IGF-1R (Cell Signaling, #3024), total Erk2 (Santa Cruz Biotechnology, #sc-154-G), total Akt (Cell Signaling Technology, #4691), total IGF-1R (Cell Signaling, #9750), and anti-B-actin-HRP (Sigma-Aldrich, #A3854) followed by chemiluminescence detection.

[4] = test system: MH-S alveolar macrophages; assay: Microvesicle secretion by MH-S alveolar macrophages; format: cell-based, mouse; settings: IL-4 treated MH-S alveolar macrophages, counted using qNano
Method: MH-S, mouse alveolar macrophages, or primary mouse alveolar macrophages were seeded. After adherence, the media was replaced with 0.22 μm filtered media to remove any contaminating microvesicles. After an overnight incubation, the supernatant was harvested and spun at 5000×g to remove cell debris and apoptotic bodies. The pellet was discarded and the resulting supernatant was filtered through 0.8 μm filter and spun again at 17,000×g. The pelleted microvesicles were then washed with HBSS and then spun again at 17,000×g. For engulfment assays, microvesicles were stained with TAMRA for 20 minutes and then added to BEAS-2B cells for 90 minutes. For flow cytometry, purified particles were stained with CD11c, Siglec F, and Annexin V (BD Biosciences, Cat. No. 550475) and processed on Imagestream™ imaging flow cytometer (Amnis). Microvesicle size distribution was characterized using qNano (IZON Science) with a NP400 membrane and at least 500 particles were counted. Microvesicles were prepared for cryo-electron microscopy using standard methods and imaged on an FEI TF20.

peritoneal macrophages = assay: IGF-1 secretion by peritoneal macrophages (ELISA); format: cell-based, mouse; settings: treated with IL-4
Method: To obtain bone-marrow derived macrophages, femurs were removed from 8 week old mice and flushed with 5 mL of sterile PBS containing 5% FBS. The cell suspension was centrifuged, treated with red blood cell lysis buffer, washed, and then plated onto sterile petri dishes in DMEM containing 10% L929 media, 10% FBS and 1% penicillin/streptomycin/glutamine (PSQ). Media was replenished every 2 to 3 days and differentiated cells were used at day 6 post-harvest. Resident peritoneal macrophages were obtained by flushing the peritoneal cavity of mice with 10 mL of cold PBS containing 5% FBS. Collected cells were spun down, resuspended in X-VIVO 10 (Lonza) and plated at a concentration of 3×10^5 cells per well in a 24 well plate for IGF-1 secretion assays, and 5×10^5 per well in a 24 well plate for engulfment assays. Floating cells were washed the next day and remaining peritoneal macrophages were used 2 days after isolation. […]
IL-4, IL-5, IL-6, and CCL-11/Eotaxin-1 in the BAL fluid of mice that were sensitized with HDM (regimen #1) were quantified by a multiplex Luminex performed by the University of Virginia Flow Cytometry Core Facility. Secretion of IGF-1 from J774 cells, peritoneal macrophages, and BAL fluids, as well as TSLP from BAL fluids, were measured by ELISA (R&D Systems).

IGF-1 in BAL fluid = assay: In vivo cytokine administration: IGF-1 in BAL fluid; settings: 1 μg recombinant mouse cytokine intranasally for two consecutive days
Method: Mice were administered intranasally with 1 μg of recombinant mouse IL-4, IL-5, or IL-13 (eBiosciences), 1×10^6 apoptotic Jurkat cells, or PBS as control, for two consecutive days. On the third day, BAL fluid was recovered and centrifuged; the supernatant was stored at −80° C. for subsequent cytokine analysis. IL-4, IL-5, IL-6, and CCL-11/Eotaxin-1 in the BAL fluid of mice that were sensitized with HDM (regimen #1) were quantified by a multiplex Luminex performed by the University of Virginia Flow Cytometry Core Facility. Secretion of IGF-1 from J774 cells, peritoneal macrophages, and BAL fluids, as well as TSLP from BAL fluids, were measured by ELISA (R&D Systems).

IC-21 cells = assay: Apoptotic thymocyte engulfment by IC-21 cells; format: cell-based; settings: indicated concentrations of mouse IGF-1 or human insulin

`Cc1[nH]c2ccccc2c1CCNC(=O)c1ccccc1F` [CK-666] was tested. Which “effect on IGF-1 induced increase in liposome uptake” value (shortened to “effect on IGF-1 induced increase”) (LR73 cells [1]) did it give?
The value was “minimal effect”.

With `C=C1[C@@H](C)[C@H]2[C@H](Cc3ccccc3)NC(=O)[C@]23[C@H](OC(C)=O)/C=C/[C@@](C)(O)C(=O)[C@@H](C)C/C=C/[C@H]3[C@@H]1O` [Cytochalasin D] as the compound, how does the “basal phagocytosis of apoptotic cells with inhibitor alone” value (LR73 cells [2]) read?
The value was “potently inhibited phagocytosis of apoptotic cells”.

What about the “effect on IGF-1 induced increase” value (LR73 cells [1]) of the same compound?
Its value is “blocked the IGF-1 induced increase in liposome uptake”.

What about the “basal uptake of liposomes” value (LR73 cells [1]) of the same compound?
Its value is “did not affect the basal uptake of liposomes”.

What about the “morphology of treated LR73 cells” value (LR73 cells [1]; for the duration of the assay) of the same compound?
Its value is “appeared morphologically normal”.

`CCn1c(-c2nonc2N)nc2cnc(Oc3cccc(NC(=O)c4ccc(OCCN5CCOCC5)cc4)c3)cc21` [GSK269962, reference compound] was tested. Which “reversal of IGF-1 mediated engulfment suppression in LR73 cells” value (“reversal … in LR73 cells” below) (LR73 cells [2]) did it give?
Its value is “does not appear to rescue IGF-1 induced engulfment suppression”.

What about the “basal phagocytosis of apoptotic cells with inhibitor alone” value (LR73 cells [2]) of the same compound?
The value was “basally increases phagocytosis of apoptotic cells”.

Which results are given for `C/C1=C/C(=O)O[C@@H]2C[C@@H](CC[C@H](C)/C=C\C=C\CC1)O[C@@](O)([C@@H]1CSC(=O)N1)C2` [Latrunculin A]?
effect on IGF-1 induced increase in liposome uptake (LR73 cells [1]): reversed IGF-1 mediated enhancement of liposome uptake; basal uptake of liposomes (LR73 cells [1]): without affecting the basal uptake of liposomes

With `Nc1ncnc2c1c(-c1cccc(OCc3ccccc3)c1)cn2C1CC(CN2CCC2)C1` (centres unmarked) [NVP-AEW541, reference compound] as the compound, how does the “reversal … in LR73 cells” value (LR73 cells [2]) read?
The value was “rescued the engulfment capacity of LR73 cells”.

What about the “phosphorylation of IGF-1R and Erk” value [3] of the same compound?
Its value is “concomitant decrease in phosphorylation of IGF-1R and Erk”.

How did the “reversal … in LR73 cells” value (LR73 cells [2]) turn out when `C[C@]1(O)C[C@@H](c2nc(-c3ccc4ccc(-c5ccccc5)nc4c3)c3c(N)nccn32)C1` [OSI-906, reference compound] was run?
The value was “rescued the engulfment capacity of LR73 cells”.

What about the “phosphorylation of IGF-1R and Erk” value [3] of the same compound?
The value was “concomitant decrease in phosphorylation of IGF-1R and Erk”.

What about the “effect on IGF-1 induced increase” value (LR73 cells [1]) of the same compound?
Its value is “reduced the increased liposome uptake”.

Which “reversal … in LR73 cells” value (LR73 cells [2]) does the source give for `C[C@@H](N)[C@H]1CC[C@H](C(=O)Nc2ccncc2)CC1` [Y27632, reference compound] here?
Its value is “does not appear to rescue IGF-1 induced engulfment suppression”.

What about the “basal phagocytosis of apoptotic cells with inhibitor alone” value (LR73 cells [2]) of the same compound?
The value was “basally increases phagocytosis of apoptotic cells”.

With “EGF: growth factor of the tested panel of soluble mediators (NSDSECPLSHDGYCLHDGVCMYIEALDKYACNCVVGYIGERCQYRDLKWWELR; Epidermal growth factor; UniProt P01133 971-1023, looked up)” as the compound, how does the “apoptotic cell uptake (engulfment) by LR73 cells” value (LR73 cells [2]) read?
The value was “did not alter engulfment”.

And the “early downstream signaling events (Erk1/2 phosphorylation)” value (from here on “early downstream signaling events”) [3]?
Its value is “elicited early downstream signaling events”.

And the “uptake of PtdSer containing liposomes by LR73 cells” value (LR73 cells [1])?
Its value is “not seen”.

For “IGFBP3: IGF binding protein that stabilizes and sequesters IGF-1 (Sigma-Aldrich)”, which “reversal of suppression by macrophage produced IGF-1” value (LR73 cells [2]; J774 supernatant incubated with IGFBP3, LR73 cells) is on record?
The value was “reversed by IGFBP3 addition”.

What about the “reversal … in LR73 cells” value (LR73 cells [2]) of the same compound?
Its value is “restored the phagocytic capability of LR73 cells”.

And the “basal phagocytosis by LR73 cells” value (LR73 cells [2]; supernatant of unstimulated J774 cells plus IGFBP3)?
Its value is “increases the basal phagocytosis”.

How did the “microvesicles secretion by macrophages” value [4] turn out when “IL-4: cytokine; recombinant mouse IL-4 (eBiosciences)” was run?
Its value is “increased microvesicles secretion”.

What about the “IGF-1 secretion by peritoneal macrophages” value (peritoneal macrophages) of the same compound?
The value was “confirmed IGF-1 secretion”.

And the “IGF-1 in bronchoalveolar lavage (BAL) fluid” value (IGF-1 in BAL fluid)?
The value was “increased level of IGF-1”.

“PDGF-AA: growth factor of the tested panel of soluble mediators” was tested. Which “apoptotic cell uptake (engulfment) by LR73 cells” value (LR73 cells [2]) did it give?
The value was “did not alter engulfment”.

What about the “early downstream signaling events” value [3] of the same compound?
The value was “elicited early downstream signaling events”.

What does the source list for VEGF?
apoptotic cell uptake (engulfment) by LR73 cells (LR73 cells [2]): did not alter engulfment; early downstream signaling events (Erk1/2 phosphorylation) [3]: elicited early downstream signaling events; uptake of PtdSer containing liposomes by LR73 cells (LR73 cells [1]): not seen

fibroblast growth factor 2 [FGF2] was tested. Which “apoptotic cell uptake (engulfment) by LR73 cells” value (LR73 cells [2]) did it give?
Its value is “did not alter engulfment”.

What about the “early downstream signaling events” value [3] of the same compound?
The value was “elicited early downstream signaling events”.

With insulin-like growth factor II [IGF-II] as the compound, how does the “apoptotic cell uptake by LR73 cells” value (LR73 cells [2]) read?
The value was “could also reduce apoptotic cell uptake”.

With “insulin: shares structural similarity with IGF-1, lower affinity for IGF-1R” as the compound, how does the “apoptotic cell uptake by LR73 cells” value (LR73 cells [2]) read?
Its value is “could also reduce apoptotic cell uptake”.

And the “corpse uptake by IC-21 cells” value (IC-21 cells)?
The value was “engulf apoptotic cells at normal capacity”.
